Consider 42 compounds from patent publication US8362000B2, “Azetidinyl diamides as monoacylglycerol lipase inhibitors” (Janssen Pharmaceutica NV, priority 2009, dated 2013).

Bounds are passed on as bounds.

For one assay, the target named is T1, mutant MGL (Homo sapiens, UniProt Q99685, L169S/L176S).
T1 sequence (Q99685 1-303 L169S/L176S): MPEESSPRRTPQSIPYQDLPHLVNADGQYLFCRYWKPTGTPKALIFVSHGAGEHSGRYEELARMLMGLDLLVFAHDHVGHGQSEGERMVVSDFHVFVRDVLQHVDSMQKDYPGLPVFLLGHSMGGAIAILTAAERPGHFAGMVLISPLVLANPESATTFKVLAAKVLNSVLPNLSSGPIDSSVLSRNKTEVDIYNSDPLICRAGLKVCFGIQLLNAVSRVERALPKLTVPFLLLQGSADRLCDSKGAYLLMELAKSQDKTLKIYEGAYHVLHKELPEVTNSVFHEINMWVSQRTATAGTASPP
In words: MGL ThermoFluor assay - mutant. It counts as binding. To be noted: ThermoFluor concentration-response, read-out: MGL mutant ThermoFluor Kd. For orientation: In DSF a fluorescence change marks the thermal transition of the protein.
Broadly, the Kd is the constant that tells how readily two partners part at equilibrium. Consider `O=C(c1ccccc1)N1CCN(C2CN(C(=O)c3ccc4c(ccn4-c4ncc(F)cn4)c3)C2)CC1` [Cpd 598, 1-(5-Fluoropyrimidin-2-yl)-5-({3-[4-(phenylcarbonyl)piperazin-1-yl]azetidin-1-yl}carbonyl)-1H-indole], for which the Kd is 249 nM.

For `O=C(c1ccccc1)N1CCN(C2CN(C(=O)c3ccc(-c4cc(Cl)cc(Cl)c4)cc3)C2)CC1` [Cpd 79, 1-{1-[(3′,5′-Dichlorobiphenyl-4-yl)carbonyl]azetidin-3-yl}-4-(phenylcarbonyl)piperazine], the Kd came out at 26.6 nM.

As for `COc1cc(NCc2ccccc2)c(Cl)cc1C(=O)N1CC(N2CCN(C(=O)c3ccccc3)CC2)C1` [Cpd 529], the Kd was 317 nM.

As for `O=C(c1ccccc1)N1CCN(C2CN(C(=O)c3ccc(-c4ccccc4)c(F)c3)C2)CC1` [Cpd 81, 1-{1-[(2-Fluorobiphenyl-4-yl)carbonyl]azetidin-3-yl}-4-(phenylcarbonyl)piperazine], the Kd was found to be 66.7 nM.

As to `O=C(c1ccc(-c2ccccc2)cc1)N1CC(N2CCN(C(=O)c3cncs3)CC2)C1` [Cpd 8, 1-[1-(Biphenyl-4-ylcarbonyl)azetidin-3-yl]-4-(1,3-thiazol-5-ylcarbonyl)piperazine], the Kd was found to be 111 nM.

Turning to `Cc1c(-c2ccccc2)oc2c(C(=O)N3CC(N4CCN(C(=O)c5ccccc5)CC4)C3)cccc2c1=O` [Cpd 107, 3-Methyl-2-phenyl-8-({3-[4-(phenylcarbonyl)piperazin-1-yl]azetidin-1-yl}carbonyl)-4H-chromen-4-one], the Kd is 556 nM.

Regarding `O=C(c1ccccc1)N1CCN(C2CN(C(=O)c3ccc(CNc4c(F)cccc4F)cc3)C2)CC1` [Cpd 556], the Kd amounted to 97 nM.

On to `O=C(c1ccccc1)N1CCN(C2CN(C(=O)c3ccc(N4CCCCC4)cc3)C2)CC1` [Cpd 53, 1-(Phenylcarbonyl)-4-{1-[(4-piperidin-1-ylphenyl)carbonyl]azetidin-3-yl}piperazine], for which the Kd amounted to 100 nM.

`O=C(c1ccccc1)N1CCN(C2CN(C(=O)c3sc4cc(F)ccc4c3C3CC3)C2)CC1` [Cpd 528]: the Kd was 49 nM.

As for `CC(C)(C)OC(=O)N1CCC(c2ccccc2C(=O)N2CC(N3CCN(C(=O)c4ccccc4)CC3)C2)C1` (stereo not drawn) [Cpd 111, tert-Butyl 3-[2-({3-[4-(phenylcarbonyl)piperazin-1-yl]azetidin-1-yl}carbonyl)phenyl]pyrrolidine-1-carboxylate], the Kd amounted to 10000 nM.

As to `O=C(c1cccc(-c2cccc(Br)n2)c1)N1CC(N2CCN(C(=O)c3nccs3)CC2)C1` [Cpd 151, 1-(1-{[3-(6-Bromopyridin-2-yl)phenyl]carbonyl}azetidin-3-yl)-4-(1,3-thiazol-2-ylcarbonyl)piperazine], the Kd was 25 nM.

In the case of `Cc1ccc(Sc2ncccc2C(=O)N2CC(N3CCN(C(=O)c4cscn4)CC3)C2)cc1` [Cpd 479], the dissociation constant Kd was 6670 nM.

For the compound `Cn1ccnc1C(=O)N1CCN(C2CN(C(=O)c3ccc(C4CCCCC4)cc3)C2)CC1` [Cpd 3, 1-{1-[(4-Cyclohexylphenyl)carbonyl]azetidin-3-yl}-4-[(1-methyl-1H-imidazol-2-yl)carbonyl]piperazine], the Kd came to 2500 nM.

For the compound `N#Cc1ccc(-c2ccc(C(=O)N3CC(N4CCN(C(=O)c5ccccc5)CC4)C3)cc2)cc1` [Cpd 82, 4′-({3-[4-(Phenylcarbonyl)piperazin-1-yl]azetidin-1-yl}carbonyl)biphenyl-4-carbonitrile], the Kd was found to be 571 nM.

For the compound `O=C(c1ccccc1)N1CCN(C2CN(C(=O)c3cccnc3Oc3ccccc3)C2)CC1` [Cpd 110, 1-{1-[(2-Phenoxypyridin-3-yl)carbonyl]azetidin-3-yl}-4-(phenylcarbonyl)piperazine], the Kd was determined as 5000 nM.

As for `O=C(c1ccccc1)N1CCN(C2CN(C(=O)c3ccc(NCc4ccc5ccccc5c4)cc3)C2)CC1` [Cpd 491, N-(Naphthalen-2-ylmethyl)-4-({3-[4-(phenylcarbonyl)piperazin-1-yl]azetidin-1-yl}carbonyl)aniline], the Kd is 100 nM.

For the compound `CCCn1ccc2cc(C(=O)N3CC(N4CCN(C(=O)c5ccccc5)CC4)C3)ccc21` [Cpd 42, 5-({3-[4-(Phenylcarbonyl)piperazin-1-yl]azetidin-1-yl}carbonyl)-1-propyl-1H-indole], the Kd was found to be 83.3 nM.

Regarding `O=C(c1ccc(SCc2ccc(Cl)c(Cl)c2)cc1)N1CC(N2CCN(C(=O)c3nccs3)CC2)C1` [Cpd 414, 1-[1-({4-[(3,4-Dichlorobenzyl)sulfanyl]phenyl}carbonyl)azetidin-3-yl]-4-(1,3-thiazol-2-ylcarbonyl)piperazine], the Kd is 25 nM.

For `O=C(c1ccc(CSc2cccc(Cl)c2)cc1)N1CC(N2CCN(C(=O)C(F)(F)F)CC2)C1` [Cpd 955], the Kd was 1110 nM.

As for `O=C(c1ccccc1)N1CCN(C2CN(C(=O)c3ccc(SCc4ccc(Cl)c(Cl)c4)cc3)C2)CC1` [Cpd 417], the Kd came to 66.7 nM.

With `CC1CN(C2CN(C(=O)c3cccc(Oc4ccccc4)c3)C2)CCN1C(=O)c1nccs1` (stereo not drawn) [Cpd 113], the Kd was determined as 1110 nM.

As to `O=C(c1ccc(O[C@H]2CCN(C(=O)N3CCCC3)C2)c(I)c1)N1CC(N2CCN(C(=O)c3nccs3)CC2)C1` [Cpd 452], the Kd turned out to be 200 nM.

As for `O=C(c1ccc(Oc2ccccn2)cc1)N1CC(N2CCN(C(=O)c3nccs3)CC2)C1` [Cpd 913, 1-(1-{[4-(Pyridin-2-yloxy)phenyl]carbonyl}azetidin-3-yl)-4-(1,3-thiazol-2-ylcarbonyl)piperazine], the Kd worked out at 1000 nM.

Take `O=C(c1ccccc1)N1CCN(C2CN(C(=O)c3cc(-c4ccccc4)oc3C(F)(F)F)C2)CC1` [Cpd 624, 1-(Phenylcarbonyl)-4-(1-{[5-phenyl-2-(trifluoromethyl)furan-3-yl]carbonyl}azetidin-3-yl)piperazine]: the Kd turned out to be 880 nM.

As to `Cn1cccc1C(=O)N1CCN(C2CN(C(=O)c3ccc(-c4ccccc4)cc3)C2)CC1` [Cpd 11, 1-[1-(Biphenyl-4-ylcarbonyl)azetidin-3-yl]-4-[(1-methyl-1H-pyrrol-2-yl)carbonyl]piperazine], the Kd came out at 454 nM.

Regarding `O=C(c1ccccc1)N1CCN(C2CN(C(=O)c3ccc(F)cc3)C2)CC1` [Cpd 49, 1-{1-[(4-Fluorophenyl)carbonyl]azetidin-3-yl}-4-(phenylcarbonyl)piperazine], the Kd was found to be 6670 nM.

Turning to `O=C(c1ccc(CS(=O)(=O)c2cccc(C(F)(F)F)c2)cc1)N1CC(N2CCN(C(=O)c3cscn3)CC2)C1` [Cpd 977], the Kd came to 20000 nM.

Staying with this assay, now noted: ThermoFluor thermal stability binding assay, read-out: MGL mutant ThermoFluor Kd.
With `O=C(c1cscn1)N1CCN(C2CN(C(=O)c3cnn(-c4ccccc4)c3C(F)(F)F)C2)CC1` [Cpd 1477], the Kd was more than 31200 nM.

For `COc1cc(C(=O)N2CC(N3CCN(C(=O)c4ccccc4)CC3)C2)ccc1-c1cccc(C(F)(F)F)c1` [Cpd 249, 1-(1-{[2-Methoxy-3′-(trifluoromethyl)biphenyl-4-yl]carbonyl}azetidin-3-yl)-4-(phenylcarbonyl)piperazine], the Kd amounted to 10 nM.

With `O=C(c1ccccc1)N1CCN(C2CN(C(=O)c3ccc(OCc4cccnc4)c(Cl)c3)C2)CC1` [Cpd 409], the Kd stood at 2030 nM.

For the compound `O=C(c1nccs1)N1CCN(C2CN(C(=O)c3cnn(-c4ccccc4)c3C(F)(F)F)C2)CC1` [Cpd 1392], the Kd is 659 nM.

For the compound `O=C(c1ccccc1)N1CCN(C2CN(C(=O)c3ccc(OCc4ccc(C(F)(F)F)c(F)c4)cc3)C2)CC1` [Cpd 395], the Kd worked out at 159 nM.

For the compound `O=C(c1ccccc1)N1CCN(C2CN(C(=O)c3ccc(OCc4cccc(Br)n4)cc3)C2)CC1` [Cpd 552], the Kd is 400 nM.

Regarding `Cc1nc(-c2ccc(F)cc2)sc1C(=O)N1CC(N2CCN(C(=O)c3cscn3)CC2)C1` [Cpd 1386], the Kd came to 133 nM.

As to `CC(=O)N1c2ccc(Br)cc2CCC1C(=O)N1CC(N2CCN(C(=O)c3nccs3)CC2)C1` (stereo not drawn) [Cpd 376, 1-Acetyl-6-bromo-2-({3-[4-(1,3-thiazol-2-ylcarbonyl)piperazin-1-yl]azetidin-1-yl}carbonyl)-1,2,3,4-tetrahydroquinoline], the Kd turned out to be 7140 nM.

For the compound `COc1cc(C(=O)N2CC(N3CCN(C(=O)c4nccs4)CC3)C2)ccc1-c1cccc(C(F)(F)F)c1` [Cpd 247, 1-(1-{[2-Methoxy-3′-(trifluoromethyl)biphenyl-4-yl]carbonyl}azetidin-3-yl)-4-(1,3-thiazol-2-ylcarbonyl)piperazine], the Kd stood at 0.4 nM.

On to `CS(=O)(=O)c1cccc(-c2ccc(C(=O)N3CC(N4CCN(C(=O)c5cscn5)CC4)C3)cc2)c1` [Cpd 236, 1-(1-{[3′-(Methylsulfonyl)biphenyl-4-yl]carbonyl}azetidin-3-yl)-4-(1,3-thiazol-4-ylcarbonyl)piperazine], for which the Kd came out at 200 nM.

Turning to `CC(=O)Nc1cccc(-c2ccc(C(=O)N3CC(N4CCN(C(=O)c5ccccc5)CC4)C3)cc2)c1` [Cpd 233, N-[4′-({3-[4-(Phenylcarbonyl)piperazin-1-yl]azetidin-1-yl}carbonyl)biphenyl-3-yl]acetamide], the Kd came out at 1320 nM.

As to `Cc1oc(-c2ccccc2)cc1C(=O)N1CC(N2CCN(C(=O)c3cscn3)CC2)C1` [Cpd 1396], the Kd is 317 nM.

With `O=C(c1ccccc1)N1CCN(C2CN(C(=O)c3ccc(OCc4cccc(OC(F)(F)F)c4)cc3)C2)CC1` [Cpd 393], the Kd is 90.9 nM.

With `O=C(c1ccc(OCc2ccc3ccccc3n2)cc1)N1CC(N2CCN(C(=O)c3cscn3)CC2)C1` [Cpd 970], the Kd worked out at 535 nM.

Regarding `O=C(c1ccccc1)N1CCN(C2CN(C(=O)c3ccc(-c4cccc(C(F)(F)F)c4)cc3F)C2)CC1` [Cpd 246, 1-(1-{[3-Fluoro-3′-(trifluoromethyl)biphenyl-4-yl]carbonyl}azetidin-3-yl)-4-(phenylcarbonyl)piperazine], the Kd came to 16.7 nM.
